The values that follow come from publication PMC8850458, “The AUTOTAC chemical biology platform for targeted protein degradation via the autophagy-lysosome system” (Nature Communications, 2022).

The target in assay [1] is T1, methionine aminopeptidase 2 (MetAP2) (Homo sapiens, UniProt P50579).
T1 construct: Targeted autophagic degradation of endogenous oncoproteins by AUTOTAC; endogenous in cells; host or cells: HEK293 / HEK293T, U87-MG
Nature of the assay: Western blot degradation of MetAP2. It counts as cell-based. The settings on record: for DC50: read-out: DC50 for MetAP2. Here is the method: (§1) Adherent cells were washed with phosphate-buffered saline (PBS) and cell pellets were lysed in SDS-based sample buffer (277.8 mM Tris-HCI, pH 6.8, 4.4% LDS, 44.4% (v/v) glycerol) containing beta-mercaptoethanol. Alternatively, cell pellets or protein supernatants were lysed in 5X Laemmli sample buffer. Whole-cell lysates were separated using SDS-PAGE, and transferred onto polyvinyllidene difluoride membranes at 100 V for 2 h at 4 °C. The membrane was incubated with a blocking solution consisting 4% skim milk in PBS solution for 30 min at room temperature and incubated with primary antibodies overnight, followed by incubation with host-specific HRP-conjugated secondary antibodies (1:10000 dilution). For signal detection, the membrane was developed with a mixture of ECL solution (Thermo Fisher Scientific) using X-ray films. Densitometry of developed bands was measured and analyzed with ImageJ (NIH, Bethesda).

In the next assay the test system is HeLa cells. Nature of the assay: Flow cytometry (propidium iodide, sub-G1). It is filed as cell-based. The settings on record: 1 µM, 48 h. Here is the method: Cell death and cell cycle arrest were quantified by staining cells with propidium iodide for flow cytometry with a BD FACSCalibur (BD Biosciences) according to the manufacturer’s instructions. […] Cells were collected by centrifugation and fixed in 70% ethanol at 4 °C for 24 h. Cells were washed with PBS and stained with propidium iodide (10 µg/mL) with RNAse treatment at 37 °C for 30 min. DNA content at each cell cycle checkpoint was measured and analyzed using BD CellQuest Pro (BD Biosciences) and ModFit LT Systems (Verity Software House).

In assay [2] the test system is U87-MG glioblastoma cells. Nature of the assay: Wound healing assay in U87-MG cells. It is filed as cell-based. The settings on record: as early as 4 h and up to 24 h post-scratch. Here is the method:
To analyze cell migration in two dimensions, U-87 MG or ACHN cells were plated to a monolayer. Cells were scratched with a sterile 10 μl pipette tip and the debris was removed using medium. Cells were treated with compounds and incubated for different time to monitor cell behavior. Photographs were obtained using a microscope at different time point.

The test system of another assay is E1. Further details: method as in printed. The following applies: authors' reply, ref not given; cited from earlier work.
The target in a further assay is T2, p62 (Homo sapiens, UniProt Q13501).
T2 construct: expressed in transfected cells; host or cells: HEK293T, transient; whole lysate used
T2 sequence (Q13501 whole entry): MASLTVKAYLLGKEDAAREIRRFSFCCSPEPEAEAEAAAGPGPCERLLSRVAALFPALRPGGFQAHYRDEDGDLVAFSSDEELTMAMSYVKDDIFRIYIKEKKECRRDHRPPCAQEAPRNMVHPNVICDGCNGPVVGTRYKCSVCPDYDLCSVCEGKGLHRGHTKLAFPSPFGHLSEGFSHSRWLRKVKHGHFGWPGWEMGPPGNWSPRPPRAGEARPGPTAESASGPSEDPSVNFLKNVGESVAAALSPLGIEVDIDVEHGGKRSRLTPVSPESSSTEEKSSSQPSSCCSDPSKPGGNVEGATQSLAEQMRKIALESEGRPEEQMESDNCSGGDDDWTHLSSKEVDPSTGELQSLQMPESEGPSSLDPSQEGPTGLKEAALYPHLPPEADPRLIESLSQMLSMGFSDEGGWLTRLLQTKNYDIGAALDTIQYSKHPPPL
Description: In vitro p62 oligomerization assay. It counts as biochemical. The following applies: HEK293T lysate. The protocol:
HEK293T cells were transiently transfected with a plasmid encoding p62-myc/his fusion proteins. Cells were resuspended in lysis buffer [50 mM HEPES (pH 7.4), 0.15 M KCl, 0.1% Nonidet P-40), 10% glycerol, containing a mixture of protease inhibitors and phosphatase inhibitor (Abcam)]. To lyse the cells, 10 cycles of freezing and thawing was done, followed by centrifugation at 13,000 × g for 20 min at 4 °C. Using a BCA assay, the protein concentration of the supernatant was measured. A total of 1 μg of protein was incubated with 1 mM of p62-ZZ ligands in the presence of 100 μM bestatin (Enzo) at room temperature for 2 h. After incubation, each sample was mixed with non-reducing 4X LDS sample buffer, heated at 95 °C for 10 min, and resolved using 4–20% gradient SDS-PAGE (Bio-Rad). To monitor the conversion of p62 monomers into oligomers or aggregates, IB assay was performed using anti-myc antibody.

For a further assay, the target named is tauP301L (Homo sapiens, UniProt P10636, P618L). Description: WB degradation of tauP301L in SH-SY5Y-tauP301L cells. It is filed as cell-based. In outline: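 Lysates in SDS/LDS or Laemmli sample buffer were separated by SDS-PAGE and blotted to PVDF. Target protein was detected with primary antibodies, HRP secondary and ECL on X-ray film, and degradation quantified by band densitometry.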
Chain of tauP301L (P10636 1-441 isoform P10636-8 P301L): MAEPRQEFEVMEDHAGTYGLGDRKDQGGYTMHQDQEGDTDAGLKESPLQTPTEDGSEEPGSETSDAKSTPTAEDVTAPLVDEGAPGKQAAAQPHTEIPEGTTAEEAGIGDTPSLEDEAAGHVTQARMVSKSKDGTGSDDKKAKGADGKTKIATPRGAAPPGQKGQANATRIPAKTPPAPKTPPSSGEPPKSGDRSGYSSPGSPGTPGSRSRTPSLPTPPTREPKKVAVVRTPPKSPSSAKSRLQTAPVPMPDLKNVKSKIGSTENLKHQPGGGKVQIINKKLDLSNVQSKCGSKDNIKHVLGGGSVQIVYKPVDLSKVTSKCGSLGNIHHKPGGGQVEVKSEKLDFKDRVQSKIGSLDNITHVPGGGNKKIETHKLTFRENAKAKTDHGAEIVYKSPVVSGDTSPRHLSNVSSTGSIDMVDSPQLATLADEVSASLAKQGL

In another assay the target is T3, wild-type desmin (Homo sapiens, UniProt P17661).
T3 construct: expressed in transfected cells; host or cells: HeLa, transient
T3 sequence (P17661 whole entry): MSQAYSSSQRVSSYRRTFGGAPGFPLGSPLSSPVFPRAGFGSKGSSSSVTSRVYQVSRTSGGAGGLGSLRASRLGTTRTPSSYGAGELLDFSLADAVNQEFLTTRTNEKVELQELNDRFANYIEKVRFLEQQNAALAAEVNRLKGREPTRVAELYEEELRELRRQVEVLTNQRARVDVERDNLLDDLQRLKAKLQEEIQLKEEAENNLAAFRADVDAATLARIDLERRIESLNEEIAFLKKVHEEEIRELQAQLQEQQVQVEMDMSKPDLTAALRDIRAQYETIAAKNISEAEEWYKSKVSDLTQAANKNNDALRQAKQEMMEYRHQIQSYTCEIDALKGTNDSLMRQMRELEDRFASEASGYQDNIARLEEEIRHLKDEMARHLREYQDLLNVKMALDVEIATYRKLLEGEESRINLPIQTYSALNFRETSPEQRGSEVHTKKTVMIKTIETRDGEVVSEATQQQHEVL
Description: WB degradation of wild-type desmin in HeLa cells. It counts as cell-based. The settings on record: exogenously expressed. The protocol:
as §1
(§2) Supplementary Fig. 5. AUTOTACs selectively target pathological aggregation-prone proteins for autophagic degradation. (a) WB in HEK293T cells treated with PBA-1105 (1 μM) and MG132 (1 μM, 24 h) at the indicated time points. (b) ICC of HeLa cells treated with the indicated compounds (1 μM, 24 h). Scale bar, 10 μm. (c) WB in HEK293T cells treated with PBA-1105 (500 nM, 24 h) and MG132 (1 μM, 24 h) under siRNA-mediated knockdown of p62 or ATG7 (20 nM, 48 h). (d) ICC in HeLa cells transiently expressing WIPI2-GFP and treated with Anle138b-F105 (1 μM, 24 h). Scale bar, 10 μm. (e) ICC in HeLa cells treated with […]
(§3) nM, 24 h). (g, h) WB in HeLa cells transiently expressing wild type or mutant (L385P) desmin-flag with LacZ-myc and treated with PBA-1105, PBA-1105b or Anle138b-F105 at the […]

Assay [3] concerns mutant huntingtin (Htt-NES-Q97, Htt-NLS-Q97). Description: WB autophagy flux/degradation of mutant huntingtin in HeLa cells. The settings on record: HttQ97-NLS-GFP, 24 h post-treatment; read-out: DC50 against the nuclear subpopulation of Htt. It counts as cell-based. Here is the method:
as §1
Supplementary Fig. 7. AUTOTACs selectively degrade pathological mutant huntingtin.
(a) WB in HeLa-Htt-NLS-Q97-GFP cells treated with PBA-1106 or PBA-1105 (2.5 μM, 24 h) with or without HCQ (25 μM, 24 h). (b) Identical to a but with YOK-1106 instead of PBA-1105 in HeLa-Htt-NES-Q97-GFP cells. […] (k) Quantification of j (n=3 biologically independent experiments each counting 50 cells). […]

In the next assay the target is T4, mutant desminL385P (Homo sapiens, UniProt P17661, L385P).
T4 construct: expressed in transfected cells; host or cells: HeLa, transient
T4 sequence (P17661 whole entry L385P): as the sequence (P17661 whole entry) above, with L385P counted along it
Description: WB degradation of mutant desmin in HeLa cells. The following applies: exogenously expressed. It counts as cell-based. Here is the method: as §1, §2, §3

SMILES strings stand for the structures. Several values for one entry are separate records, joined by “and”; a condition that tells them apart may be missing. Identical values can stand only once. Like-named read-outs stand apart in the source and are kept apart here. Some results are limits rather than exact numbers.

T1 sequence (P50579 whole entry): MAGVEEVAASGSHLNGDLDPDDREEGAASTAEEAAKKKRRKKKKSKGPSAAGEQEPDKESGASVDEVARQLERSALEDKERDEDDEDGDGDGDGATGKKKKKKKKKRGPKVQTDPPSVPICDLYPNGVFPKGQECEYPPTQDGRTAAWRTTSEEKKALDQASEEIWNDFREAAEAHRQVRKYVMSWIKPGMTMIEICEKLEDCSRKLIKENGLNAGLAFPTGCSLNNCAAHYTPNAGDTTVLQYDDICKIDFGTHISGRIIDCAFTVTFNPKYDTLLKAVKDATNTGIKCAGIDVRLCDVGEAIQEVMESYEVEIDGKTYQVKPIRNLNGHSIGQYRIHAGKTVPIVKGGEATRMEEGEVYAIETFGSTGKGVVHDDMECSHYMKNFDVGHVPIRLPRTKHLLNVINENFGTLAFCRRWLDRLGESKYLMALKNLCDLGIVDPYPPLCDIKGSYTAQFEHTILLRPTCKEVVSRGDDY

As to `COC1C(OC(=O)C=CC=CC=CC=CC(=O)NCCOCCOCCNCc2cccc(OCc3ccccc3)c2)CCC2(CO2)C1C1(C)OC1CC=C(C)C` (centres unmarked) [Fumagillin-105], the “MetAP2 normalized to control, AVG %” value was 99.8808% in assay [1] (293T, 24 h, 1nM); 77.0205% in assay [1] (293T, 24 h, 10nM); 98.7214% in assay [1] (293T, 24 h, 100nM); 25.6004% in [1] (293T, 24 h, 1uM); 44.4377% in assay [1] (293T, 24 h, 2.5uM); 22.9281% in assay [1] (293T, 24 h, 5uM). In assay [1] (293T, 24 h, 10uM), the “MetAP2 normalized to control, AVG %” value is reported as 19.1769%. Also, the “Dmax, 24 hr for MetAP2” value in assay [1] (HEK293 cells) lay within 1 to 10 µM. The remaining activity at 0.001 µM in [1] (HEK-293T, 24 h, 293T, 24 h, 1nM, single experiments, read-out: MetAP2 normalized to GAPDH and to control, percentage) was 98.3%. Also, in assay [1] (HEK-293T, 24 h, 293T, 24 h, 100nM, single experiments, read-out: MetAP2 normalized to GAPDH and to control, percentage), the remaining activity at 0.1 µM came to 98%. The remaining activity at 1 µM in assay [1] (HEK-293T, 24 h, 293T, 24 h, 1uM, single experiments, read-out: MetAP2 normalized to GAPDH and to control, percentage) amounted to 19.3%. Further, the remaining activity at 2.5 µM in [1] (HEK-293T, 24 h, 293T, 24 h, 2.5uM, single experiments, read-out: MetAP2 normalized to GAPDH and to control, percentage) was 52.8%. The DC50 – broadly, the concentration giving 50% degradation – in assay [1] (U87-MG glioblastoma cells, 24 h) was approximately 0.5 µM; in assay [1] (HEK293 cells (legend: HEK293T), 24 h) it was ~0.7 µM and 0.701 µM. For the same compound, the “programmed cell death (sub-G1 subpopulation)” value in the assay with HeLa cells is listed as “induced programmed cell death”. In [2], the inhibition of migration result is “more efficiently inhibited the migration”.
Regarding `CCOC(=O)c1ccc(N2NC(=O)/C(=C/c3ccc([N+](=O)[O-])o3)C2=O)cc1` [pyr41], in the assay with E1, the IC50 (in general, the concentration at which inhibition is half-maximal) was less than 10 µM.
Consider `Fc1ccc(COc2cccc(CNCCOCCOCCNc3cccc(-c4cc(-c5ccc6c(c5)OCO6)n[nH]4)c3)c2)cc1` [Anle138b-F105], for which, at p62, the p62 self-oligomerization entry is on record as “facilitated p62 self-polymerization”. Further, the “persistence of mutant tau degradation post-washout” value at tauP301L (100 nM 24 h, then washout) is recorded as “at least 8 h”. Moreover, the DC50 (on tauP301L (SH-SY5Y-tauP301L cells); in assay [3]) was approximately 0.003 µM throughout. The “degradation of wild-type desmin” value on wild-type desmin was “not wild-type desmin”. Further, the “degradation of mutant desminL385P” value at mutant desminL385P is listed as “induced the degradation”.
